Test results as given in patent US8269000B2, “Substituted pyrimidine and triazine compounds” (Gruenenthal GmbH, priority 2008, dated 2012).

The compounds below were run against T1, rat B1R (Rattus norvegicus, UniProt P97583) (assay: FLIPR Ca2+ functional study on bradykinin receptor 1 (rB1R CHO K1 cells)). Details: CHO-K1, % inhibition rat B1R at 10 μM, read-out: % inh. (rat B1R) 10 μM.
T1 construct: expressed in transfected cells; host or cells: CHO K1 cells
T1 sequence (P97583 1-337): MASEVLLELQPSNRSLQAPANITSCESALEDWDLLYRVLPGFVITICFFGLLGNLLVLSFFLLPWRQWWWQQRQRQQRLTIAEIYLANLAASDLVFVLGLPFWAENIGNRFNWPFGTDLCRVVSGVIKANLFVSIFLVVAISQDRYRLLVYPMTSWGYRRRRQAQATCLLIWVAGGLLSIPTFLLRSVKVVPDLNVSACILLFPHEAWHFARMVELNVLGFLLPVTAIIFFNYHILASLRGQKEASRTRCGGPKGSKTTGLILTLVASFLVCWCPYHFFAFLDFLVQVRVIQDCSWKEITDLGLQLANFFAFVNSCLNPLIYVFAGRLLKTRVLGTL
Format: cell-based
Experimental: The agonistic or antagonistic activity of substances can be quantified on the bradykinin receptor 1 (B1R) of the species human and rat using ectopically expressing cell lines (CHO K1 cells) and with the aid of a Ca^2+-sensitive dye (Fluo-4) using a fluorescent imaging plate reader (FLIPR). The indication in % activation is based on the Ca^2+ signal after addition of Lys-Des-Arg^9-bradykinin (0.5 nM) or Des-Arg^9-bradykinin (100 nM). Antagonists lead to suppression of the Ca^2+ influx after the addition of the agonist. % Inhibition compared with the maximum achievable inhibition is indicated.
The agonistic or antagonistic activity of substances can be determined on the bradykinin receptor 1 (B1R) of the species human and rat using the following assay. According to this assay, the Ca^2+ influx through the channel is quantified with the aid of a Ca^2+-sensitive dye (Fluo-4 type, Molecular Probes Europe BV, Leiden, Netherlands) using a Fluorescent Imaging Plate Reader (FLIPR, Molecular Devices, Sunnyvale, USA).
Chinese hamster ovary cells (CHO K1 cells) which have been stably transfected with the human B1R gene (hB1R cells) or with the B1R gene of the rat (rB1R cells) are used. For functional studies, the cells are plated out on black 96-well plates having a clear base (BD Biosciences, Heidelberg, Germany or Greiner, Frickenhausen, Germany) in a density of 20,000-35,000 cells/well. The cells are left overnight at 37° C. and with 5% CO2 in culture medium (hB1R cells: Nutrient Mixture Ham's F12, Gibco Invitrogen GmbH, Karlsruhe, Germany or DMEM, Sigma-Aldrich, Taufkirchen, Germany; rB1R cells: D-MEM/F12, Gibco Invitrogen GmbH, Karlsruhe, Germany), with 10 vol.% FBS (fetal bovine serum, Gibco Invitrogen GmbH, Karlsruhe, Germany or PAN Biotech GmbH, Aidenbach, Germany). On the following day, the cells are loaded for 60 minutes at 37° C. with 2.13 μM Fluo-4 (Molecular Probes Europe BV, Leiden, Netherlands) in HBSS buffer (Hank's buffered saline solution, Gibco Invitrogen GmbH, Karlsruhe, Germany) […] (Sigma-Aldrich, Taufkirchen, Germany) and 10 mM HEPES (Sigma-Aldrich, Taufkirchen, Germany). The plates are then washed twice with HBSS buffer, and HBSS buffer additionally containing 0.1% BSA (bovine serum albumin; Sigma-Aldrich, Taufkirchen, Germany), 5.6 mM glucose and 0.05% gelatin (Merck KGaA, Darmstadt, Germany) is added to the plates. After incubation for a further 20 minutes at room temperature, the plates are inserted into the FLIPR for Ca^2+ measurement. Alternatively, washing is carried out with buffer A (15 mM HEPES, 80 mM NaCl, 5 mM KCl, 1.2 mM CaCl2, 0.7 mM MgSO4, 2 g/l glucose, 2.5 mM probenecid) followed by loading with buffer A with added 2.5 μM Fluo-4 and 0.025% Pluronic F127 (Sigma-Aldrich, Taufkirchen, Germany). The cells are then washed twice with buffer A and incubated for 30 minutes at room temperature with buffer A additionally containing 0.05% BSA and 0.05% gelatin and are then inserted into the FLIPR for Ca^2+ measurement. The Ca^2+-dependent fluorescence is measured before and after the addition of substances (λex=488 nm, λem=540 nm). Quantification is carried out by measuring the highest fluorescence intensity (FC, fluorescence counts) over time.
The FLIPR protocol consists of two substance additions. Test substances (10 μM) are first pipetted onto the cells and the Ca^2+ influx is compared with the control (hB1R: Lys-Des-Arg^9-bradykinin>=50 nM; rB1R: Des-Arg^9-bradykinin 10 μM). This gives the activation in %, based on the Ca^2+ signal after addition of Lys-Des-Arg^9-bradykinin (>=50 nM) or Des-Arg^9-bradykinin (10 μM). After 10-20 minutes' incubation, Lys-Des-Arg^9-bradykinin (hB1R) or Des-Arg^9-bradykinin (rB1R) is applied in the concentration of the EC80, and the influx of Ca^2+ is likewise determined. Antagonists lead to suppression of the Ca^2+ influx. The % inhibition compared with the maximum achievable inhibition is calculated. […]
`COc1cc(C)c(S(=O)(=O)N2CCCCC2COc2nccc(N3CCC(c4cccc(F)c4)(N4CCN(C)CC4)CC3)n2)c(C)c1` (centres unmarked) [G_CC-104, 4-[4-(3-fluorophenyl)-4-(4-methyl-piperazin-1-yl)-piperidin-1-yl]-2-[[1-[(4-methoxy-2,6-dimethyl-phenyl)sulfonyl]-piperidin-2-yl]-methoxy]-pyrimidine] showed an inhibition at 10 µM of 101%. Compound `COc1cc(C)c(S(=O)(=O)N2CCCCC2COc2nccc(N3CCC(Oc4cnccn4)CC3)n2)c(C)c1` (centres unmarked) [G_CC-079, 2-[[1-[(4-methoxy-2,6-dimethyl-phenyl)sulfonyl]-piperidin-2-yl]-methoxy]-4-(4-pyrazin-2-yloxy-piperidin-1-yl)-pyrimidine] has an inhibition at 10 µM of 98%. Work on `COc1cc(C)c(S(=O)(=O)N2CCCCC2COc2ccnc(N(C)CCCN3CCC(c4ccccc4)(N(C)C)CC3)n2)c(C)c1` (centres unmarked) [H_CC-061, 3-(4-dimethylamino-4-phenyl-piperidin-1-yl)-propyl-[4-[[1-[(4-methoxy-2,6-dimethyl-phenyl)sulfonyl]-piperidin-2-yl]-methoxy]-pyrimidin-2-yl]-methyl-amine] yielded an inhibition at 10 µM of 105%. Work on `COc1cc(C)c(S(=O)(=O)N(C)CCOc2ccnc(N(C)CCN3CCC(Oc4ccncc4)CC3)n2)c(C)c1` [H_CC-089, 4-methoxy-N,2,6-trimethyl-N-[2-[2-[methyl-[2-(4-pyridin-4-yloxy-piperidin-1-yl)-ethyl]-amino]-pyrimidin-4-yl]oxy-ethyl]benzenesulfonic acid amide] yielded an inhibition at 10 µM of 58%. `COc1cc(C)c(S(=O)(=O)N2CCCCC2COc2nccc(N3[C@@H]4CC[C@H]3CC(Oc3cccnc3)C4)n2)c(C)c1` (stereo partly drawn) [G_CC-105, (1S,5R)-8-[2-[[1-[(4-methoxy-2,6-dimethyl-phenyl)sulfonyl]-piperidin-2-yl]-methoxy]-pyrimidin-4-yl]-3-pyridin-3-yloxy-8-azabicyclo[3.2.1]octane] was tested, and the inhibition at 10 µM was 101%. `COc1cc(C)c(S(=O)(=O)N(C)CCOc2nccc(N3CCC4(CCN(Cc5ccccc5)C4=O)CC3)n2)c(C)c1` [G_CC-046, N-[2-[[4-(3-benzyl-4-oxo-3,8-diazaspiro[4.5]decan-8-yl)-2-pyrimidinyl]oxy]ethyl]-4-methoxy-N,2,6-trimethylbenzenesulfonamide] showed an inhibition at 10 µM of 96%. For `COc1cc(C)c(S(=O)(=O)N(C)C(COc2nccc(N3CCC(c4cccc(F)c4)(N4CCN(C)CC4)CC3)n2)c2ccccc2)c(C)c1` (centres unmarked) [G_CC-135, N-[2-[4-[4-(3-fluorophenyl)-4-(4-methyl-piperazin-1-yl)-piperidin-1-yl]-pyrimidin-2-yl]oxy-1-phenyl-ethyl]-4-methoxy-N,2,6-trimethyl-benzenesulfonic acid amide], the inhibition at 10 µM was 53%. Compound `COc1cc(C)c(S(=O)(=O)N2CCCCC2COc2ccnc(N3CCC(c4cccc(F)c4)(N4CCN(C)CC4)CC3)n2)c(C)c1` (centres unmarked) [H_CC-091, 2-[4-(3-fluorophenyl)-4-(4-methyl-piperazin-1-yl)-piperidin-1-yl]-4-[[1-[(4-methoxy-2,6-dimethyl-phenyl)sulfonyl]-piperidin-2-yl]-methoxy]-pyrimidine] has an inhibition at 10 µM of 73%. Work on `COc1cc(C)c(S(=O)(=O)N(C)CCOc2nccc(N3CCC4(CCN(Cc5ccccc5)C4)C3)n2)c(C)c1` (centres unmarked) [G_CC-028, N-[2-[[4-(3-benzyl-3,7-diazaspiro[4.4]nonan-7-yl)-2-pyrimidinyl]oxy]ethyl]-4-methoxy-N,2,6-trimethylbenzenesulfonamide] yielded an inhibition at 10 µM of 104%. `COc1cc(C)c(S(=O)(=O)N2c3ccccc3C[C@H]2COc2ccnc(N(C)CCN3CCC(c4ccccc4)(N4CCCC4)CC3)n2)c(C)c1` [H_CC-072, [4-[[(2S)-1-[(4-methoxy-2,6-dimethyl-phenyl)sulfonyl]-2,3-dihydro-1H-indol-2-yl]-methoxy]-pyrimidin-2-yl]-methyl-[2-(4-phenyl-4-pyrrolidin-1-yl-piperidin-1-yl)-ethyl]-amine] gave an inhibition at 10 µM of 83%. `CCCCC1(N(C)C)CCN(CCN(C)c2nccc(OCCN(C)S(=O)(=O)c3c(C)cc(OC)cc3C)n2)CC1` [H_CC-060, N-[2-[2-[2-(4-butyl-4-dimethylamino-piperidin-1-yl)-ethyl-methyl-amino]pyrimidin-4-yl]oxy-ethyl]-4-methoxy-N,2,6-trimethyl-benzenesulfonic acid amide] showed an inhibition at 10 µM of 102%. `COc1cc(C)c(S(=O)(=O)N(C)CCOc2ccnc(N(C)CCN3CCC(c4ccccc4)(N4CCCC4)CC3)n2)c(C)c1` [H_CC-059, 4-methoxy-N,2,6-trimethyl-N-[2-[2-[methyl-[2-(4-phenyl-4-pyrrolidin-1-yl-piperidin-1-yl)-ethyl]-amino]-pyrimidin-4-yl]oxy-ethyl]-benzenesulfonic acid amide] was tested, and the inhibition at 10 µM was 91%. `COc1cc(C)c(S(=O)(=O)N2CCC[C@H]2COc2nccc(N3CCC4(CC3)C(=O)NCC4c3cccc(C(F)(F)F)c3)n2)c(C)c1` (stereo partly drawn) [G_CC-049, 8-[2-[[(2S)-1-(4-methoxy-2,6-dimethylphenyl)sulfonyl-2-pyrrolidinyl]methoxy]-4-pyrimidinyl]-1-[3-(trifluoromethyl)phenyl]-3,8-diazaspiro[4.5]decan-4-one] was tested, and the inhibition at 10 µM was 72%. With `COc1cc(C)c(S(=O)(=O)N2CCC[C@H]2COc2nccc(N3CCC4(CCN(Cc5ccccc5)C4=O)CC3)n2)c(C)c1` [G_CC-053, 3-benzyl-8-[2-[[(2S)-1-(4-methoxy-2,6-dimethylphenyl)sulfonyl-2-pyrrolidinyl)methoxy]-4-pyrimidinyl]-3,8-diazaspiro[4.5]decan-4-one] the inhibition at 10 µM was 96%. `COc1cc(C)c(S(=O)(=O)N2CCC[C@H]2COc2ccnc(N(C)CCN3CCC(c4ccccc4)(N(C)C)CC3)n2)c(C)c1` [H_CC-054, 2-(4-dimethylamino-4-phenyl-piperidin-1-yl)-ethyl-[4-[[(2S)-1-[(4-methoxy-2,6-dimethyl-phenyl)sulfonyl]-pyrrolidin-2-yl]-methoxy]-pyrimidin-2-yl]-methyl-amine] gave an inhibition at 10 µM of 83%. In the case of `COc1cc(C)c(S(=O)(=O)N2CCCCC2COc2ccnc(N(C)CCN3CCC(c4ccccc4)(N(C)C)CC3)n2)c(C)c1` (centres unmarked) [H_CC-044, 2-(4-dimethylamino-4-phenyl-piperidin-1-yl)-ethyl-[4-[[1-[(4-methoxy-2,6-dimethyl-phenyl)sulfonyl]-piperidin-2-yl]-methoxy]-pyrimidin-2-yl]-methyl-amine], the inhibition at 10 µM is reported as 102%. With `COc1cc(C)c(S(=O)(=O)N2CCC[C@H]2COc2ccnc(N3CCC(OCCN4CCCC4)(c4cccnc4)CC3)n2)c(C)c1` [H_CC-040, 4-[[(2S)-1-(4-methoxy-2,6-dimethylphenyl)sulfonyl-2-pyrrolidinyl]methoxy]-2-[4-(3-pyridyl)-4-(2-1-pyrrolidinylethoxy)-1-piperidinyl]pyrimidine] the inhibition at 10 µM was 51%.
